In US7465581B2, “ANKTM1, a cold-activated TRP-like channel expressed in nociceptive neurons” (The Scripps Research Institute, priority 2002, dated 2008):
“Also recorded” adds a separate entry of the source.

Tests used:
ANKTM1 = biological target: T1, ANKTM1 (Mus musculus, UniProt Q8BLA8); experiment: Intracellular calcium imaging (Fura-2) of ANKTM1-expressing CHO cells; format: cell-based, murine; conditions: for activation of ANKTM1-expressing cells by compound: rise in intracellular calcium, 340/380 ratio, FIG. 4B
T1 construct: pcDNA5FRT/TO containing full-length murine ANKTM1; expressed in transfected cells; host or cells: tetracycline-inducible CHO-K1/FRT cells (Flp-In)
Method: Nevertheless, since ANKTM1 bears similarities to TRP-like channels expressed in sensory neurons, tests were conducted to determine activation of ANKTM1 by various sensory stimuli. To this end, a series of tests were conducted using full-length murine ANKTM1 stably transfected in Chinese Hamster Ovary (CHO) cells containing FRT sites (CHO-K1/FRT) under control of a tetracycline (Tet)-inducible promoter via Flp recombinase mediated recombination. To circumvent this problem, cell lines were generated in which ANKTM1 expression could be controlled. Tetracycline-inducible CHO-K1/FRT cells lines were generated by transfecting the CHO Flp-In host cell line with pcDNA6/TR according to manufacturer's instructions (Invitrogen, San Diego, Calif.) and selected in 5 μg/mL Blasticidin. Clones stably expressing the tetracycline repressor identified by blasticidin resistance were transiently transfected with a control plasmid containing the CAT gene and selected based on high levels of CAT expression after treatment with tetracycline. The gene expression vector; pcDNA5FRT/TO containing full-length murine ANKTM1 and the Flp recombinase expression plasmid pOG44 were co-transfected into the tetracycline-inducible CHO-K1/FRT cell line and selected via Hygromycin resistance (200 μg/ml). Induction of ANKTM1 was accomplished by treating CHO cells with 1-2 μg/mL tetracycline (Tet) 5-24 hours before experiments. Calcium imaging experiments were performed essentially as described (Peier et al., 2002a, supra). Briefly, cells were plated on glass coverslips 24-48 hours prior to imaging experiments. Cells were washed in HEPES buffeted saline solution (2 mM Ca^2+), loaded with Fura-2 acetoxymethyl ester ([…]), 1.5 mM pluronic acid (Molecular Probes, Eugene, Oreg.) and incubated for 1 hour at room temperature in the dark. Coverslips were placed in laminar flow chamber (Warner Instrument Corp., Hamden, Conn.) and perfused with HEPES buffered saline (2 mM Ca^2+) flowing through small-diameter tubing at the inlet of the chamber. Perfusion rate was approximately 2 ml/min and was stopped and started via a solenoid switch (Warner Instrument Corp., Hamden, Conn. Perfusate temperature was controlled by a Peltier device and monitored via miniature thermocouple at the inlet of the chamber. Heated (up to 52° C.), chilled (down to 9° C., the limit of our system), and room temperature buffer was delivered through the same application tubing at the inlet of the chamber. Alternatively, in experiments where the compounds menthol (Sigma, St. Louis, Mo.]), capsaicin (Fluka, Buchs, Switzerland) and Icilin (Tocris Woodson,) were applied, cells were plated on 24-well tissue culture plates and loaded with Fura-2. Compounds were delivered with a 3 cc syringe during a period of ten seconds. Images of Fura-2 loaded cells with the excitation wavelength alternating between 340 nm and 380 nm were captured with a cooled […] camera. The ratio of fluorescence intensity of the two wavelengths of groups of 30-50 cells in each experiment was analyzed using MetaFluor (Universal Imaging Corp). Experiments were performed in triplicate. Unless otherwise indicated, graphs represent averaged responses of 20-40 cells from representative experiments. For direct comparison of results from different experiments, values were normalized to baseline of the ratio 340/380. For ANKTM1 and TRPM8 threshold experiments, the threshold temperature of activation of 60-100 cells each from three replicate experiments was analyzed. Threshold of activation was defined as 20% above baseline. Hanks Balanced Salt Solution (HBSS) and HEPES buffers were obtained from GibcoBRL.

TRPM8 [1] = biological target: T2, TRPM8 (Mus musculus, UniProt Q8R4D5); conditions: McKemy et al., 2002; cited from earlier work
T2 construct: expressed in transfected cells; host or cells: CHO-K1/FRT cells

TRPV1 [2] = biological target: T3, TRPV1 (Rattus norvegicus, UniProt O35433); experiment: Intracellular calcium imaging (Fura-2) of TRPV1-expressing CHO cells; format: cell-based; conditions: rise in intracellular calcium, 340/380 ratio, FIG. 4B
T3 construct: expressed in transfected cells; host or cells: CHO cells
Method: Calcium imaging experiments were performed essentially as described (Peier et al., 2002a, supra). Briefly, cells were plated on glass coverslips 24-48 hours prior to imaging experiments. Cells were washed in HEPES buffeted saline solution (2 mM Ca^2+), loaded with Fura-2 acetoxymethyl ester ([…]), 1.5 mM pluronic acid (Molecular Probes, Eugene, Oreg.) and incubated for 1 hour at room temperature in the dark. Coverslips were placed in laminar flow chamber (Warner Instrument Corp., Hamden, Conn.) and perfused with HEPES buffered saline (2 mM Ca^2+) flowing through small-diameter tubing at the inlet of the chamber. Perfusion rate was approximately 2 ml/min and was stopped and started via a solenoid switch (Warner Instrument Corp., Hamden, Conn. Perfusate temperature was controlled by a Peltier device and monitored via miniature thermocouple at the inlet of the chamber. Heated (up to 52° C.), chilled (down to 9° C., the limit of our system), and room temperature buffer was delivered through the same application tubing at the inlet of the chamber. Alternatively, in experiments where the compounds menthol (Sigma, St. Louis, Mo.]), capsaicin (Fluka, Buchs, Switzerland) and Icilin (Tocris Woodson,) were applied, cells were plated on 24-well tissue culture plates and loaded with Fura-2. Compounds were delivered with a 3 cc syringe during a period of ten seconds. […]

TRPM8 [3] = biological target: T2, TRPM8; experiment: Intracellular calcium imaging (Fura-2) of TRPM8-expressing CHO cells; format: cell-based, murine
Method: CHO-K1/FRT cells were stably transfected with full-length murine ANKTM1 in the pcDNA5/FRT vector using Lipofectamine (Invitrogen) according to the manufacturer's protocol. Transfected cells were selected in growth medium containing Hygromycin (200 μg/mL). Northern blot analysis identified stable clones expressing ANKTM1 mRNA. The generation of stable murine TRPM8-expressing CHO-K1/FRT cells has been previously described (Peier et al, 2002). ANKTM1-expressing stable CHO-K1/FRT lines appeared unhealthy (membrane blebbing, cytoplasmic granulations) in culture, and after several passages, a loss of ANTKM1 expression was observed. Previous investigators have also claimed difficulty generating stable cell lines expressing human ANKTM1.
Calcium imaging experiments were performed essentially as described (Peier et al., 2002a, supra). Briefly, cells were plated on glass coverslips 24-48 hours prior to imaging experiments. […]
Images of Fura-2 loaded cells with the excitation wavelength alternating between 340 nm and 380 nm were captured with a cooled […] camera. The ratio of fluorescence intensity of the two wavelengths of groups of 30-50 cells in each experiment was analyzed using MetaFluor (Universal Imaging Corp). […] For ANKTM1 and TRPM8 threshold experiments, the threshold temperature of activation of 60-100 cells each from three replicate experiments was analyzed. […]

TRPV1 [4] = biological target: T3, TRPV1; conditions: general statement; cited from earlier work

T1 sequence (Q8BLA8 whole entry): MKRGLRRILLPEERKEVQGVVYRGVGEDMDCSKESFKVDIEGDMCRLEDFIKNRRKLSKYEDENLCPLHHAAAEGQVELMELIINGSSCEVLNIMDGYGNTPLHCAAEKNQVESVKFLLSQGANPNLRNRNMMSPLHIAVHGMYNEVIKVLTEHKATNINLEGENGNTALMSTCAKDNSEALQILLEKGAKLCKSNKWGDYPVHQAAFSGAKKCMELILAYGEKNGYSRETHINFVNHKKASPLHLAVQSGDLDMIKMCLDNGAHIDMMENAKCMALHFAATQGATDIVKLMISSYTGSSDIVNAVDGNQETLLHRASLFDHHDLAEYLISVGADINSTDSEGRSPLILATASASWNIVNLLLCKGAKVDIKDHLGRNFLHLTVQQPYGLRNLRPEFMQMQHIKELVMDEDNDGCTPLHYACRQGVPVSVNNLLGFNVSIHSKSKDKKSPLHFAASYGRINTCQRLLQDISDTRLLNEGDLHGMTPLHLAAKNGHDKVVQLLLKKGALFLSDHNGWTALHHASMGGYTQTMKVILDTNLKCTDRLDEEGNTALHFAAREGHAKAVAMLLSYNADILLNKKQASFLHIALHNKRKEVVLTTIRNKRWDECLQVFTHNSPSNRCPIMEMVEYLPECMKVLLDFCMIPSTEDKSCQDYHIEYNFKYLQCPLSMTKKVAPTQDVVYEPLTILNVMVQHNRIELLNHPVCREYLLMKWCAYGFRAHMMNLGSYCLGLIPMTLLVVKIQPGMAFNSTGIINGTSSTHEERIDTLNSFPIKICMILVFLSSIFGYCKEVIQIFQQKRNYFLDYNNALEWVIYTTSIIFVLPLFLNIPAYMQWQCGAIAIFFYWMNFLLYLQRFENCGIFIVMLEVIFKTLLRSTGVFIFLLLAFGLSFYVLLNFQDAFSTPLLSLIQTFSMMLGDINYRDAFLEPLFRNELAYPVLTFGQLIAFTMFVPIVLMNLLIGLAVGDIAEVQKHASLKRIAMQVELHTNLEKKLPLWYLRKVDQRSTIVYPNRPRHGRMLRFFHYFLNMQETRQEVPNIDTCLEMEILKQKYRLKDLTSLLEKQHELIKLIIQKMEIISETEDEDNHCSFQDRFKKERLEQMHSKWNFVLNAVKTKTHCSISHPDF
T2 sequence (Q8R4D5 whole entry): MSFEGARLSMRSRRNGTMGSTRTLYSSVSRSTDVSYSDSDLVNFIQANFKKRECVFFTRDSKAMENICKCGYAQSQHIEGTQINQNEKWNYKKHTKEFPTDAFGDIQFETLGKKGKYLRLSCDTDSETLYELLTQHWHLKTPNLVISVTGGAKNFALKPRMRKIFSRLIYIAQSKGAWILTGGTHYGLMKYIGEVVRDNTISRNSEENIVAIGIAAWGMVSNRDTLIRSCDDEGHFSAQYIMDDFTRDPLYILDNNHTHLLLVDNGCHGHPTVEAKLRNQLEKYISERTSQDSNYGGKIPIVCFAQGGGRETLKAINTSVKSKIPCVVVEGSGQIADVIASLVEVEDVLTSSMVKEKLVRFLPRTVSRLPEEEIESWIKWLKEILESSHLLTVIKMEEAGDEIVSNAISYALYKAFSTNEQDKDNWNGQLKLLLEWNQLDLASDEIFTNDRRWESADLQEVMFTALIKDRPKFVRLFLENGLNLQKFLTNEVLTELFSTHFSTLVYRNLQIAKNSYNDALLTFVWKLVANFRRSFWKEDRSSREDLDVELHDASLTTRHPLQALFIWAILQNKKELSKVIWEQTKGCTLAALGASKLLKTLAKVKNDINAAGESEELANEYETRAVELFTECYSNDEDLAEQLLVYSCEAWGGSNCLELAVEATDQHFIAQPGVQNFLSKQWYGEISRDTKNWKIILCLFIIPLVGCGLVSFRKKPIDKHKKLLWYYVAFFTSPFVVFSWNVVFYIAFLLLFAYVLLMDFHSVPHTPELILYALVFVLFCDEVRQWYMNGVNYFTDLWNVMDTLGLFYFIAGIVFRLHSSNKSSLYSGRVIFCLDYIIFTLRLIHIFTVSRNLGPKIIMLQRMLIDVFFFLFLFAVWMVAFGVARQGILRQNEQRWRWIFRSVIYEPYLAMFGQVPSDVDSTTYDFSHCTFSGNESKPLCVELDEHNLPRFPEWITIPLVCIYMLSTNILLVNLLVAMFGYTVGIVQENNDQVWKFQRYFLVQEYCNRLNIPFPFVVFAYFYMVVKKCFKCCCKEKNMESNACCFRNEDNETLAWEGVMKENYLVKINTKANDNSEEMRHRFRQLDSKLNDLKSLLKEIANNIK
T3 sequence (O35433 whole entry): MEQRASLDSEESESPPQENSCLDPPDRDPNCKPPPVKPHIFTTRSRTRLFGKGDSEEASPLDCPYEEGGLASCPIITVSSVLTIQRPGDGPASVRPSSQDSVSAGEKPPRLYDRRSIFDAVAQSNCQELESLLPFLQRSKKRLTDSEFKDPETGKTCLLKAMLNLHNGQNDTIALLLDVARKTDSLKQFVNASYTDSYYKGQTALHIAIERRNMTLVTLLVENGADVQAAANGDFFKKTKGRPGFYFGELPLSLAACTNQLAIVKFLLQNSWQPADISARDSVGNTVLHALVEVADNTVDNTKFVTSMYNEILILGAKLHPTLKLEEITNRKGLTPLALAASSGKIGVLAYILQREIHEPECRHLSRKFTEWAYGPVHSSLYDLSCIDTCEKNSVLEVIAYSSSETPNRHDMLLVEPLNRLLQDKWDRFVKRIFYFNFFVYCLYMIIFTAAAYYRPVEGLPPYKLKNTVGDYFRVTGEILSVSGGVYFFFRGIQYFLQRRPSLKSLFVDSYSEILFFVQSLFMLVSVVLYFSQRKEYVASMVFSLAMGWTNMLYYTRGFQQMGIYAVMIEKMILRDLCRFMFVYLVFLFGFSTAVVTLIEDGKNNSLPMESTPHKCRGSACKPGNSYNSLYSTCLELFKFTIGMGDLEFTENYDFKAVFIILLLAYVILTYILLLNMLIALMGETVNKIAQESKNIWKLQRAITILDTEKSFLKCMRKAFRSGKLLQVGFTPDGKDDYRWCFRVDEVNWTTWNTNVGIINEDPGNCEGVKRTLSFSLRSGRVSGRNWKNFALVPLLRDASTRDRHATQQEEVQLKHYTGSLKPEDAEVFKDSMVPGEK

## O=C1NC(c2cccc([N+](=O)[O-])c2)=CCN1c1ccccc1O [Icilin]
ANKTM1; ANKTM1 cells
  delay of response: 15 to 60 s
ANKTM1; comparison with TRPM8-expressing cells
  concentration required for ANKTM1 activation compared to TRPM8: Higher concentrations
ANKTM1
  activation of ANKTM1-expressing cells by compound: activated
TRPM8 [1]
  activator of TRPM8: potent activator
TRPV1 [2]
  activation of TRPV1-expressing cells by compound: did not activate
TRPM8 [3]; TRPM8 cells
  delay of response: 15 s

## CC1CCC(C(C)C)C(O)C1 (stereo not drawn) [Menthol, menthol]
ANKTM1
  activation of ANKTM1-expressing cells by compound: failed to activate

## COc1cc(CNC(=O)CCCC/C=C/C(C)C)ccc1O [capsaicin]
TRPV1 [4]
  activator of TRPV1: potent activator
ANKTM1
  activation of ANKTM1-expressing cells by compound: did not activate
TRPM8 [3]; rise in intracellular calcium, 340/380 ratio, FIG. 4B
  activation of TRPM8-expressing cells by compound: did not activate

## N.N.N.N.N.N.N.N.N.N.N.N.N.N.[Cl-].[Cl-].[Cl-].[Cl-].[Cl-].[Cl-].[O-2].[O-2].[Ru+3].[Ru+3].[Ru+4] [ruthenium red]
ANKTM1; 5 μM ruthenium red, pre-incubation or present during cooling, ANKTM1-expressing CHO cells, not entirely recovered after ten minute washout
  block of cold responses by ANKTM1: eliminates cold-evoked responses; also recorded: completely blocked
ANKTM1; 1 μm ruthenium red, multiple experiments
  ANKTM1-containing cells with complete block of the cold response: 90%
